The values that follow come from ChEMBL document CHEMBL1148582, “Metal-mediated inhibition of Escherichia coli methionine aminopeptidase: structure-activity relationships and development of a novel scoring function for metal-ligand interactions” (J Med Chem, 2006).

SMILES strings stand for the structures. Activity calls are given as the source filed them. The calls are words filed in the database; no cut-off is given here. Where only a bound is given, the exact number is not on record here.

Broadly, the inhibition is the change of the read-out against control, counted positive when it falls. Usually IC50 stands for the concentration at which inhibition is half-maximal. A low value points to greater potency in that assay.

Experiment [1] has as its target T1, Methionine aminopeptidase (Escherichia coli K-12) (UniProt P0AE18).
T1 sequence (whole entry): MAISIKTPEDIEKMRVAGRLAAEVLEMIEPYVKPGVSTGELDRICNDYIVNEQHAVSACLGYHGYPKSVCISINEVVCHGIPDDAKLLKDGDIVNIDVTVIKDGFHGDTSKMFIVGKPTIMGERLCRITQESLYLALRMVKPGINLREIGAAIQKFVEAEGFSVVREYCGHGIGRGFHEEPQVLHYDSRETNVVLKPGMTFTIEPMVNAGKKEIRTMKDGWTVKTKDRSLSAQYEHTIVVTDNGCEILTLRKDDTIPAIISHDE
Kind of experiment: Inhibition of Mn2+ loaded MetAP expressed in Escherichia coli at upto 10 uM.

Experiment [2] concerns the target T1, Methionine aminopeptidase (Escherichia coli K-12). Nature of the experiment: Inhibition of Co2+ loaded MetAP expressed in Escherichia coli at 10 uM.
Experiment [3] addresses T2, Methionine aminopeptidase (Escherichia coli K-12, UniProt P0AE18).
T2 sequence (P0AE18 whole entry): T1 sequence (whole entry)
Kind of experiment: Inhibition of Co2+ loaded MetAP expressed in Escherichia coli.

Turning to `N/C(S)=N/c1nc2ccccc2[nH]1`, in experiment [1], the inhibition result was “inactive”.
As for `Cc1ccc2[nH]c(-c3cscn3)nc2c1`, in experiment [1], the inhibition result was “inactive”.
In experiment [2], `Cc1cc2nc(-c3cscn3)[nH]c2cc1C` yielded an inhibition of 47.8%. Moreover, in experiment [1], the inhibition entry was “inactive”. Further, in experiment [3], the IC50 is > 10 µM.
As for `CC(C)(C)c1ccc2[nH]c(-c3ccccn3)nc2c1`, the inhibition entry in experiment [1] was “inactive”.
In the case of `Cc1cc2nc(-c3ccccn3)[nH]c2cc1C`, the inhibition result in experiment [1] was “inactive”. Moreover, the IC50 in experiment [3] was determined as 2.43 µM.
In experiment [3], `CC(C)(C)c1ccc2nc(-c3ccccn3)[nH]c2c1` returned an IC50 of 2.6 µM.
With `Nc1ccc2[nH]c(-c3cscn3)nc2c1`, the inhibition entry in experiment [1] was “inactive”. Inhibition in experiment [3] was half-maximal at 3.39 µM (IC50).
Compound `c1csc(-c2nc3ccccc3[nH]2)c1` gave an inhibition in experiment [2] of 5.36%. The inhibition entry in experiment [1] is “inactive”. Moreover, the half-maximal inhibitory concentration (IC50) in experiment [3] was > 10 µM.
Consider `Cc1ccc2nc(-c3ccccn3)[nH]c2c1`, for which the inhibition result in experiment [1] was “inactive”.
On to `Clc1ccc2[nH]c(-c3cscn3)nc2c1`, for which the inhibition entry in experiment [1] is “inactive”. For the same compound, 5.15 µM corresponded to half-maximal inhibition in experiment [3] (IC50).
`O=[N+]([O-])c1ccc2[nH]c(-c3cscn3)nc2c1`: the inhibition entry in experiment [1] was “inactive”.
On to `c1ccc(Cn2c(-c3cscn3)nc3ccccc32)cc1`, for which, in experiment [1], the inhibition result is “inactive”.
In experiment [3], `c1cc2nc(-c3cscn3)[nH]c2cn1` yielded a half-maximal inhibitory concentration (IC50) of 1.72 µM.
For the compound `CCCSc1ccc2nc(NC(=O)OC)[nH]c2c1` [ALBENDAZOLE], the IC50 in experiment [3] was > 10 µM.
Turning to `O=[N+]([O-])c1ccc2[nH]c(-c3ccccn3)nc2c1`, the inhibition entry in experiment [1] is “inactive”. The compound also showed an IC50 in experiment [3] of 0.162 µM.
On to `c1c[nH]c2nc(-c3cscn3)nc-2c1`, for which the inhibition entry in experiment [1] was “inactive”. The compound further gave an IC50 in experiment [3] of 0.078 µM.
With `c1ccc(-c2nc3ccccc3[nH]2)nc1`, the inhibition entry in experiment [1] was “inactive”. In addition, the half-inhibitory concentration (IC50) in experiment [3] came to 0.574 µM.
For the compound `c1ccc(-c2nc3c[nH]cnc-3n2)nc1`, the inhibition entry in experiment [1] is “inactive”. For the same compound, the IC50 in experiment [3] is 0.376 µM.
In the case of `c1ccc(-c2nc3cc[nH]cc-3n2)nc1`, the inhibition result in experiment [1] was “inactive”. In experiment [3], this compound displayed an IC50 of 0.55 µM.
As for `O=C(c1ccccc1)c1ccc2[nH]c(-c3cscn3)nc2c1`, in experiment [1], the inhibition entry is “inactive”.
With `Nc1ccc2[nH]c(-c3ccccn3)nc2c1`, the inhibition result in experiment [1] is “inactive”.
Consider `COC(=O)Nc1nc2cc(Sc3ccccc3)ccc2[nH]1`, for which, in experiment [2], the inhibition stood at 6.07%. In addition, the inhibition entry in experiment [1] is “inactive”.
Turning to `c1ccc(-c2nc3ccc[nH]c-3n2)nc1`, the inhibition entry in experiment [1] was “inactive”. The midpoint of inhibition in experiment [3], the IC50, lay at 0.105 µM.
For the compound `Fc1ccc2nc(-c3ccccn3)[nH]c2c1`, the inhibition result in experiment [1] was “inactive”.
With `O=C(c1ccccc1)c1ccc2[nH]c(-c3ccccn3)nc2c1`, in experiment [1], the inhibition result is “inactive”.
Regarding `Cc1ccc2[nH]c(-c3ccccn3)nc2c1`, the IC50 in experiment [3] worked out at 2.09 µM.
Regarding `Clc1ccc2nc(-c3ccccn3)[nH]c2c1`, the inhibition entry in experiment [1] is “inactive”. In experiment [3], inhibition was half-maximal at 1.69 µM (IC50).
`O=C(c1ccccc1)c1ccc2nc(-c3ccccn3)[nH]c2c1` gave an IC50 in experiment [3] of 0.403 µM.
`c1cc2[nH]c(-c3cscn3)nc2cn1`: the inhibition entry in experiment [1] was “inactive”.
With `COC(=O)Nc1nc2ccc(C(=O)c3ccccc3)cc2[nH]1` [MEBENDAZOLE], the IC50 in experiment [3] is > 10 µM.
Compound `COC(=O)Nc1nc2cc(C(=O)c3ccccc3)ccc2[nH]1` displayed an inhibition in experiment [2] of 29%. In addition, the inhibition entry in experiment [1] is “inactive”.
For `Oc1cccc(-c2nc3ccccc3[nH]2)n1`, in experiment [1], the inhibition result was “inactive”.
As to `c1ccc2[nH]c(Nc3nccs3)nc2c1`, the inhibition entry in experiment [1] was “inactive”. In experiment [3], this compound returned an IC50 of 0.54 µM.
`O=c1cccc(-c2nc3ccccc3[nH]2)[nH]1`: the IC50 in experiment [3] is 1.34 µM. That is a single-digit micromolar value.
Regarding `Cn1c(-c2cscn2)nc2ccccc21`, the inhibition entry in experiment [1] is “inactive”.
For the compound `Oc1cccnc1-c1nc2ccccc2[nH]1`, the inhibition entry in experiment [1] is “inactive”. In experiment [3], this compound had an IC50 of 0.777 µM.
`c1coc(-c2nc3ccccc3[nH]2)c1` [FUBERIDAZOLE] displayed an inhibition in experiment [2] of 10.4%. In addition, the inhibition result in experiment [1] was “inactive”. Also, the IC50 in experiment [3] is > 10 µM.
With `c1cncc(-c2nc3ccccc3[nH]2)c1`, in experiment [2], the inhibition was 4.21%. In experiment [1], the inhibition result is “inactive”. Besides, in experiment [3], the IC50 is > 10 µM.
Turning to `c1ccc2[nH]c(-c3cscn3)nc2c1` [THIABENDAZOLE], the inhibition entry in experiment [1] is “inactive”. Further, the IC50 in experiment [3] is 0.472 µM.
The compound `CCCSc1ccc2[nH]c(NC(=O)OC)nc2c1` gave an inhibition in experiment [2] of 15.4%. The inhibition entry in experiment [1] is “inactive”.
`N#Cc1ccc2[nH]c(-c3ccccn3)nc2c1`: the inhibition entry in experiment [1] was “inactive”. The compound further yielded an IC50 in experiment [3] of 0.431 µM.
In the case of `Fc1ccc2[nH]c(-c3cscn3)nc2c1`, the inhibition entry in experiment [1] was “inactive”.
In turn, `NC(=S)Nc1nc2ccccc2[nH]1` yielded an IC50 in experiment [3] of 8.96 µM.
In turn, `CC(C)(C)c1ccc2nc(-c3cscn3)[nH]c2c1` had an IC50 in experiment [3] of 3.91 µM.
As for `c1ccc2[nH]c(-c3cnccn3)nc2c1`, the inhibition result in experiment [1] was “inactive”. This compound also returned an IC50 in experiment [3] of 4.59 µM.
For the compound `Fc1ccc2[nH]c(-c3ccccn3)nc2c1`, 1.51 µM corresponded to half-maximal inhibition in experiment [3] (IC50).
In experiment [3], `Nc1ccc2nc(-c3ccccn3)[nH]c2c1` yielded an IC50 of 0.967 µM.
On to `Oc1ccccc1-c1nc2ccccc2[nH]1`, for which the inhibition in experiment [2] is 30.4%. In addition, the inhibition result in experiment [1] is “inactive”. In addition, the IC50 in experiment [3] was > 10 µM.
As for `COC(=O)Nc1nc2ccc(Sc3ccccc3)cc2[nH]1` [FENBENDAZOLE], the half-inhibitory concentration (IC50) in experiment [3] is > 10 µM.
`c1ccc(-c2nc3ncc[nH]c-3n2)nc1`: the inhibition result in experiment [1] is “inactive”. In experiment [3], the IC50 came out at 0.24 µM.
Regarding `CC(C)(C)c1ccc2[nH]c(-c3cscn3)nc2c1`, the inhibition result in experiment [1] was “inactive”.
Take `COC(=O)Nc1nc2ccccc2[nH]1` [CARBENDAZIM]: in experiment [2], the inhibition was determined as 17.6%. For the same compound, the inhibition entry in experiment [1] was “inactive”. Besides, in experiment [3], the IC50 was > 10 µM.
For `c1ccc(Cn2c(-c3ccccn3)nc3ccccc32)cc1`, in experiment [1], the inhibition result is “inactive”. Also, the IC50 in experiment [3] was determined as 0.992 µM.
